Drawing on ChEMBL document CHEMBL1123175, “Synthesis and biological activity of several amino nucleoside-platinum(II) complexes” (1986), this text covers inhibition for 2 sequences.

Some results are limits rather than exact numbers.

Test [1] has as its system L1210. Put plainly: Compound was tested for the inhibition of the transport of methionine into L1210 cells at the 10 uM concentration after <20 min. To be noted: Mus musculus. Format: functional.
Test [2] deals with L1210. The test can be described thus: Compound was tested for the inhibition of the transport of aminoisobutyric acid into L1210 cells at the 10 uM concentration after <20 min. Type of test: functional. The settings on record: Mus musculus.

Consider CISPLATIN, for which the figures for the inhibition in the test with L1210 [1] and in the test on L1210 [2] were 10% and 15%, respectively.

As for TRANSPLATIN, the inhibition with L1210 [1] and in the test with L1210 [2] was less than 5% in each case.

Usually inhibition stands for the drop in the measured response relative to a control, in per cent. The low end stands for a response near the control, the high end for a response far below the control.
